Experiments:
[1] = test system: p38 MAPK; assay: Western blot of p38 MAPK phosphorylation; type: cell-based, human; conditions: for fMLP-induced activation (phosphorylation) of p38 MAP kinase: PMNL, 1 μM compound, 1 μM fMLP
Method: (§1) Human polymorphonuclear leukocytes (PMNLs; 50 × 10^6), isolated from whole blood, were resuspended in 1 mL of cold PGC buffer. Briefly, neutrophils were pre-incubated for 15 min at 37 °C with test compounds (1 μM). […] The samples were subsequent centrifuged (1200g, 10 min) and the pellets were resuspended in 100 μL od SDS-PAGE loading buffer (2x) (Tris 1 M pH 8, EDTA 0.2 M, 10 % SDS, 10 % mercaptoethanol). Correct protein loading on the gels and transfer of proteins to the nitrocellulose membrane were confirmed by Ponceau staining. Membranes with transferred proteins were incubated overnight with primary antibodies in 1x Tris Buffered Saline (TBS) with 1 % Casein (Biorad- #1610782). Membranes were then washed and incubated with horseradish peroxidase-conjugated secondary antibodies for 1 h at room temperature. Blots were developed using enhanced chemiluminescence detection reagents ECL (Immobilion ECL Ultra Western HRP Substrate - Cat# WBULS0500 Millipore) and acquired using ChemiDoc Imaging System (BioRad). Antibody recognizing phosphorylated p38-MAPkinase, pERK, ERK, NfKB were from Cell Signalling Technology (Boston, MA) and used at 1:1000 dilution. Secondary antibodies were purchased from Biorad (170–6515; 170–6516) and used at 1:2000 diluition.

[2] = test system: intracellular Ca2+; assay: Intracellular Ca2+ measurements in PMNL (Fura-2); type: cell-based, human; conditions: 1 μM compound
Method: PMNL (10^7 x ml PG buffer) were pre-stained with Fura-2/AM (2 μM) for 45 min at 37 °C in the dark. After two washing steps, cells were resuspended in PG buffer containing 0.1 % BSA at a density of 5 × 10^6/mL. 100 μL of the cell suspension was transferred into a 96-well plate and pre-incubated for 10 min at 37 °C with compound or vehicle (1 % DMSO), and 2 min prior stimulation 1 mM CaCl2 was added, following addition of 0.1 μM fMLP or 2 μM ionomycin as a positive control for Ca^2+ influx. The signal was monitored in a thermally (37 °C) controlled NOVOstar microplate reader (BMG Labtechnologies GmbH, Offenburg, Germany) (emission at 510 nm, excitation at 340 nm (Ca^2+-bound Fura-2) and 380 nm (free Fura-2). After cell lysis with Triton X-100 the maximal fluorescence signals were monitored and after chelating Ca^2+ with 10 mM EDTA the minimal fluorescence signals. The concentration of Ca^2+ was calculated from the ratio of the signals at 340 and 380 nm according to Grynkiewicz G et al..

[3] = test system: human PMNLs; assay: Lactate dehydrogenase release (LDH assay) in PMNL; type: cell-based
Method: After treatment of PMNL, supernatants were centrifuged (600g × 5 min, 4 °C), and 100 μL of supernatant were mixed with 200 μL LDH reaction buffer (75 mM Tris/HCl, pH 7.4, 0.3 mM NADH, 1.5 mM Na-pyruvate) in a 96-well plate. The decrease of NADH was measured immediately by absorbance at 340 nm in a kinetic mode (every 7 s for 20 min; Multiskan Spectrum). As a positive control for maximal LDH release, cells treated with 1 % Triton X-100 were included in each experiment, while untreated cells and vehicle (DMSO) served as negative controls.

[4] = test system: ROS formation in PMNL; assay: ROS formation in neutrophils (DCF-DA); type: cell-based, human; conditions: 1 and 10 μM, 0.1 μM PMA
Method: Neutrophils (10^7 cells/mL in PG buffer) were pre-incubated for 15 min at 37 °C with litreol compounds, diphenyleneiodonium chloride (DPI, used as a positive control for ROS inhibition), or 0.1 % DMSO as vehicle control. Then, 2′,7′-dichlorofluorescence-diacetate (DCF-DA; 1 μg/mL) and CaCl2 (1 mM) were added 2 min prior to addition of 0.1 μM phorbol myristate acetate (PMA, AppliChem, Darmstadt, Germany). The fluorescence emission at 530 nm was measured after excitation at 485 nm in a thermally controlled (37 °C) NOVOstar microplate reader (BMG Labtechnologies GmbH, Offenburg, Germany).

[5] = test system: ERK; assay: Western blot of ERK phosphorylation; type: cell-based, human; conditions: for fMLP-induced activation (phosphorylation) of ERK: PMNL, 1 μM compound, 1 μM fMLP
Method: as §1

[6] = target: T1, 5-LO (Homo sapiens, UniProt P09917); assay: cell-free 5-LO activity assay with purified human recombinant 5-LO; type: biochemical; design: made in house; conditions: for mechanism of 5-LO inhibition versus substrate AA: AA 2.5, 5, 10, 20, 40 and 80 μM; for mechanism of 5-LO inhibition versus substrate AA / AA concentration at which maximal inhibitory potency was reached: isolated 5-LO; for AA concentration at which maximal inhibitory potency was reached: varying AA
T1 sequence (P09917 1-674): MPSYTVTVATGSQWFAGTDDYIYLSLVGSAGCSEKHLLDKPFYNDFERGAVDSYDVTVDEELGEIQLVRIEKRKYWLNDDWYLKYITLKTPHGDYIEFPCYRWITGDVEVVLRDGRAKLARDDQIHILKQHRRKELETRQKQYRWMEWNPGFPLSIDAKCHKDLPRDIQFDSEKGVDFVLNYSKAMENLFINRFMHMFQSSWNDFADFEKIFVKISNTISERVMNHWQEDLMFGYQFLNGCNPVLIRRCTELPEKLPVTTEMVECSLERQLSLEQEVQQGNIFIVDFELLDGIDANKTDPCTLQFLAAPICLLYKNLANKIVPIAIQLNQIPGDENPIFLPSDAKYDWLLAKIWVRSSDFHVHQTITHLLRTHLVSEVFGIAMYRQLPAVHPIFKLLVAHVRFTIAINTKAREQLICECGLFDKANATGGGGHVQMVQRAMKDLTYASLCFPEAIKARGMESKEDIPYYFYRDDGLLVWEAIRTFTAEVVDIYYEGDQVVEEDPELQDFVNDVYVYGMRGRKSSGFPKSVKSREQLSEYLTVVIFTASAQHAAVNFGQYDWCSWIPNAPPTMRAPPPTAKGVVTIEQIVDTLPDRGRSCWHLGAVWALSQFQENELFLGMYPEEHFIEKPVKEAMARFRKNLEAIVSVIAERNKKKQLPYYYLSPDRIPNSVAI
Method: 5-LO was expressed in E. coli B121 (DE3) transformed with pT3- 5LO plasmid, and purification of 5-LO was performed as described previously. Briefly, E. coli was lysed in 50 mM tri-ethanolamine/HCl, pH 8.0, 5 mM EDTA, […] soybean trypsin inhibitor, 1 mM phenylmethanesulfonyl fluoride, 1 mM dithiothreitol and 1 mg/mL lysozyme and then sonified (3 × 15 s). The homogenate was then centrifuged at 40,000g for 20 min at 4°C. 5-LO in the supernatant was partially purified by affinity chromatography on an ATP-agarose column (Sigma-Aldrich). Semi-purified 5-LO was diluted in PBS containing EDTA (1 mM) and ATP (1 mM) and immediately used for 5-LO activity assays. Samples were pre-incubated with the test compounds or vehicle (0.1 % DMSO) for 10 min at 4°C. Samples were pre-warmed for 30 s at 37°C, and 2 mM CaCl2 plus the indicated concentrations of AA were added to start 5-LO product formation. The reaction was stopped after 10 min by addition of one volume of ice-cold methanol, and the formed metabolites were analyzed by HPLC. 5- LO products include the all-trans isomers of LTB4 as well as 5-HPETE and its corresponding alcohol 5-HETE.

Row | SMILES | phosphorylation and expression of p38 MAPK (Western blot) ([1]; LPS stimulation) | fMLP-induced activation (phosphorylation) of p38 MAP kinase [1] | intracellular Ca2+ concentrations [2] | cytotoxicity on PMNL (LDH levels in the supernatants) [3] | ROS formation in PMA-stimulated PMNL [4] | phosphorylation and expression of ERK (Western blot) ([5]; LPS stimulation) | fMLP-induced activation (phosphorylation) of ERK [5] | IC50 [6] [nM] | mechanism of 5-LO inhibition versus substrate AA [6] | AA concentration at which maximal inhibitory potency was reached [6] [nM]
1 | CCCC/C=C\CCCCCCCCCc1cccc(O)c1O [CI, (Z)-3-(pentadec-10′-enyl)-catechol] | significantly inhibited | inhibited | Neither CS nor CI caused significant changes | comparable to those of untreated controls | not affected | significantly inhibited | inhibited | 60 ± 40 | excluding a substrate competitive mechanism | 20000
2 | CCCCCCCCCCCCCCCc1cccc(O)c1O [CS, 3-n-pentadecylcatechol] |  | did not show significant effects | Neither CS nor CI caused significant changes | comparable to those of untreated controls | not affected |  | did not show significant effects | 150 | not competitive | 2500
